# Reference: PubChem BioAssay (NCI)
#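 Step 1: Grow cells in 96-well plates. Step 2: Expose to compound for 48 hours at 5 concentrations. Step 3: Interpolate endpoints linearly; if unreached, use highest concentration. TGI denotes the concentration required for complete inhibition of growth.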
# Columns and labels:
# Test in all cases: DTP human tumour cell line panel, 48 h
# HCT-15 colon = tested on: HCT-15 colon
# MDA-N = tested on: MDA-N
# UO-31 renal = tested on: UO-31 renal
# SN12C renal = tested on: SN12C renal
# DU-145 prostate = tested on: DU-145 prostate
# A498 renal = tested on: A498 renal
# 786-0 renal = tested on: 786-0 renal
# OVCAR-4 ovarian = tested on: OVCAR-4 ovarian
# T-47D breast = tested on: T-47D breast
# EKVX NSCLC = tested on: EKVX NSCLC
# HOP-92 NSCLC = tested on: HOP-92 NSCLC
# OVCAR-5 ovarian = tested on: OVCAR-5 ovarian
# COLO 205 colon = tested on: COLO 205 colon
# SR leukemia = tested on: SR leukemia
# SW-620 colon = tested on: SW-620 colon
# SK-OV-3 ovarian = tested on: SK-OV-3 ovarian
# HCT-116 colon = tested on: HCT-116 colon
# SF-268 CNS = tested on: SF-268 CNS
# K-562 leukemia = tested on: K-562 leukemia
# CCRF-CEM leukemia = tested on: CCRF-CEM leukemia
# RPMI-8226 leukemia = tested on: RPMI-8226 leukemia
# HS 578T breast = tested on: HS 578T breast
# UACC-62 melanoma = tested on: UACC-62 melanoma
# SK-MEL-28 melanoma = tested on: SK-MEL-28 melanoma
# HL-60(TB) leukemia = tested on: HL-60(TB) leukemia
# MOLT-4 leukemia = tested on: MOLT-4 leukemia
# MDA-MB-435 = tested on: MDA-MB-435
# M14 melanoma = tested on: M14 melanoma
# NCI-H226 lung = tested on: NCI-H226 lung
# MDA-MB-231 breast = tested on: MDA-MB-231 breast
# NCI/ADR-RES ovarian = tested on: NCI/ADR-RES ovarian
# SNB-19 CNS = tested on: SNB-19 CNS
# LOX IMVI melanoma = tested on: LOX IMVI melanoma
# RXF 393 renal = tested on: RXF 393 renal
# MALME-3M melanoma = tested on: MALME-3M melanoma
# BT-549 breast = tested on: BT-549 breast
# SF-539 CNS = tested on: SF-539 CNS
# NCI-H23 lung = tested on: NCI-H23 lung
# TK-10 renal = tested on: TK-10 renal
# IGROV1 ovarian = tested on: IGROV1 ovarian
# PC-3 prostate = tested on: PC-3 prostate
# KM12 colon = tested on: KM12 colon
# MCF7 breast = tested on: MCF7 breast
# A549 NSCLC = tested on: A549 NSCLC
# NCI-H460 lung = tested on: NCI-H460 lung
# HCC-2998 colon = tested on: HCC-2998 colon
# U251 CNS = tested on: U251 CNS
# HT29 colon = tested on: HT29 colon
# ACHN renal = tested on: ACHN renal
# HOP-62 NSCLC = tested on: HOP-62 NSCLC
# UACC-257 melanoma = tested on: UACC-257 melanoma
# OVCAR-3 ovarian = tested on: OVCAR-3 ovarian
# SK-MEL-2 melanoma = tested on: SK-MEL-2 melanoma
# SK-MEL-5 melanoma = tested on: SK-MEL-5 melanoma
# SF-295 CNS = tested on: SF-295 CNS
# NCI-H522 lung = tested on: NCI-H522 lung
# CAKI-1 renal = tested on: CAKI-1 renal
# SNB-75 CNS = tested on: SNB-75 CNS
# OVCAR-8 ovarian = tested on: OVCAR-8 ovarian
structure (smiles),measurement,setting,value
Clc1ccc(/C=C/c2nc(-c3ccc(Cl)cc3)cn3c2nc2ccccc23)cc1,TGI,HCT-15 colon,> 100 µM
same,TGI,MDA-N,> 100 µM
same,TGI,UO-31 renal,> 100 µM
same,TGI,SN12C renal,> 100 µM
same,TGI,DU-145 prostate,> 100 µM
same,TGI,A498 renal,> 100 µM
same,TGI,786-0 renal,> 100 µM
same,TGI,OVCAR-4 ovarian,> 100 µM
same,TGI,T-47D breast,> 100 µM
same,TGI,EKVX NSCLC,> 100 µM
same,TGI,HOP-92 NSCLC,> 100 µM
same,TGI,OVCAR-5 ovarian,> 100 µM
same,TGI,COLO 205 colon,> 100 µM
same,TGI,SR leukemia,> 100 µM
same,TGI,SW-620 colon,> 100 µM
same,TGI,SK-OV-3 ovarian,> 100 µM
same,TGI,HCT-116 colon,> 100 µM
same,TGI,SF-268 CNS,> 100 µM
same,TGI,K-562 leukemia,> 100 µM
same,TGI,CCRF-CEM leukemia,> 100 µM
same,TGI,RPMI-8226 leukemia,> 100 µM
same,TGI,HS 578T breast,> 100 µM
same,TGI,UACC-62 melanoma,> 100 µM
same,TGI,SK-MEL-28 melanoma,> 100 µM
same,TGI,HL-60(TB) leukemia,> 100 µM
same,TGI,MOLT-4 leukemia,> 100 µM
same,TGI,MDA-MB-435,> 100 µM
same,TGI,M14 melanoma,> 100 µM
same,TGI,NCI-H226 lung,> 100 µM
same,TGI,MDA-MB-231 breast,> 100 µM
same,TGI,NCI/ADR-RES ovarian,> 100 µM
same,TGI,SNB-19 CNS,> 100 µM
same,TGI,LOX IMVI melanoma,> 100 µM
same,TGI,RXF 393 renal,> 100 µM
same,TGI,MALME-3M melanoma,> 100 µM
same,TGI,BT-549 breast,> 100 µM
same,TGI,SF-539 CNS,> 100 µM
same,TGI,NCI-H23 lung,> 100 µM
same,TGI,TK-10 renal,> 100 µM
same,TGI,IGROV1 ovarian,> 100 µM
same,TGI,PC-3 prostate,> 100 µM
same,TGI,KM12 colon,> 100 µM
same,TGI,MCF7 breast,> 100 µM
same,TGI,A549 NSCLC,> 100 µM
same,TGI,NCI-H460 lung,> 100 µM
same,TGI,HCC-2998 colon,> 100 µM
same,TGI,U251 CNS,> 100 µM
same,TGI,HT29 colon,> 100 µM
same,TGI,ACHN renal,> 100 µM
same,TGI,HOP-62 NSCLC,> 100 µM
same,TGI,UACC-257 melanoma,> 100 µM
same,TGI,OVCAR-3 ovarian,> 100 µM
same,TGI,SK-MEL-2 melanoma,> 100 µM
same,TGI,SK-MEL-5 melanoma,> 100 µM
O=C(O)CN(CC(=O)O)c1ccccc1,TGI,HCT-15 colon,> 100 µM
same,TGI,MDA-N,> 100 µM
same,TGI,UO-31 renal,> 100 µM
same,TGI,SN12C renal,> 100 µM
same,TGI,DU-145 prostate,> 100 µM
same,TGI,SF-295 CNS,> 100 µM
same,TGI,A498 renal,> 100 µM
same,TGI,NCI-H522 lung,> 100 µM
same,TGI,786-0 renal,> 100 µM
same,TGI,OVCAR-4 ovarian,> 100 µM
same,TGI,T-47D breast,> 100 µM
same,TGI,EKVX NSCLC,> 100 µM
same,TGI,HOP-92 NSCLC,> 100 µM
same,TGI,OVCAR-5 ovarian,> 100 µM
same,TGI,COLO 205 colon,> 100 µM
same,TGI,SR leukemia,> 100 µM
same,TGI,SW-620 colon,> 100 µM
same,TGI,SK-OV-3 ovarian,> 100 µM
same,TGI,HCT-116 colon,> 100 µM
same,TGI,SF-268 CNS,> 100 µM
same,TGI,K-562 leukemia,> 100 µM
same,TGI,CCRF-CEM leukemia,83.7 µM
same,TGI,RPMI-8226 leukemia,92.1 µM
same,TGI,HS 578T breast,> 100 µM
same,TGI,UACC-62 melanoma,> 100 µM
same,TGI,SK-MEL-28 melanoma,> 100 µM
same,TGI,CAKI-1 renal,> 100 µM
same,TGI,HL-60(TB) leukemia,> 100 µM
same,TGI,SNB-75 CNS,> 100 µM
same,TGI,MOLT-4 leukemia,> 100 µM
same,TGI,MDA-MB-435,> 100 µM
same,TGI,M14 melanoma,> 100 µM
same,TGI,NCI-H226 lung,> 100 µM
same,TGI,MDA-MB-231 breast,> 100 µM
same,TGI,NCI/ADR-RES ovarian,> 100 µM
same,TGI,OVCAR-8 ovarian,> 100 µM
same,TGI,SNB-19 CNS,> 100 µM
same,TGI,LOX IMVI melanoma,> 100 µM
same,TGI,RXF 393 renal,> 100 µM
same,TGI,MALME-3M melanoma,> 100 µM
same,TGI,BT-549 breast,> 100 µM
same,TGI,SF-539 CNS,> 100 µM
same,TGI,NCI-H23 lung,> 100 µM
same,TGI,TK-10 renal,> 100 µM
same,TGI,IGROV1 ovarian,> 100 µM
same,TGI,PC-3 prostate,> 100 µM
same,TGI,KM12 colon,> 100 µM
same,TGI,MCF7 breast,> 100 µM
same,TGI,A549 NSCLC,> 100 µM
same,TGI,NCI-H460 lung,> 100 µM
same,TGI,U251 CNS,> 100 µM
same,TGI,HT29 colon,> 100 µM
same,TGI,ACHN renal,> 100 µM
same,TGI,HOP-62 NSCLC,> 100 µM
same,TGI,UACC-257 melanoma,> 100 µM
same,TGI,OVCAR-3 ovarian,> 100 µM
same,TGI,SK-MEL-2 melanoma,> 100 µM
same,TGI,SK-MEL-5 melanoma,> 100 µM
